From PMC5404560, “Towards Selective Mycobacterial ClpP1P2 Inhibitors with Reduced Activity against the Human Proteasome” (Antimicrobial Agents and Chemotherapy, 2017)
Where a name gives a salt, the structure may show the parent alone. Residues, ends and D or L forms follow the SMILES beside them.

What was measured:
Calpain 1 = target: T1, Calpain 1 (Homo sapiens, UniProt P07384); test: Protease panel: Calpain 1; assay type: biochemical; settings: supplement panel table, test and control compound
T1 construct: Reaction Biology Corporation (contract testing)

Cathepsin B = target: T2, Cathepsin B (Homo sapiens, UniProt P07858); test: Protease panel: Cathepsin B; assay type: biochemical; settings: supplement panel table, test and control compound
T2 construct: Reaction Biology Corporation (contract testing)

Cathepsin C = target: T3, Cathepsin C (Homo sapiens, UniProt P53634); test: Protease panel: Cathepsin C; assay type: biochemical; settings: supplement panel table, test and control compound
T3 construct: Reaction Biology Corporation (contract testing)

Cathepsin H = Cathepsin H (Homo sapiens, UniProt P09668); test: Protease panel: Cathepsin H; assay type: biochemical; settings: supplement panel table, test and control compound
Cathepsin L = Cathepsin L (Homo sapiens, UniProt P07711); test: Protease panel: Cathepsin L; assay type: biochemical; settings: supplement panel table, test and control compound
Cathepsin S = Cathepsin S (Homo sapiens, UniProt P25774); test: Protease panel: Cathepsin S; assay type: biochemical; settings: supplement panel table, test and control compound
Cathepsin V = Cathepsin V (Homo sapiens, UniProt O60911); test: Protease panel: Cathepsin V; assay type: biochemical; settings: supplement panel table, test and control compound
Papain = target: T4, Papain (Carica papaya, UniProt P00784); test: Protease panel: Papain; assay type: biochemical; settings: supplement panel table, test and control compound
T4 construct: Reaction Biology Corporation (contract testing)

Caspase 7 = target: T5, Caspase 7 (Homo sapiens, UniProt P55210); test: Protease panel: Caspase 7; assay type: biochemical; settings: supplement panel table, test and control compound
T5 construct: Reaction Biology Corporation (contract testing)

ADAM10 = target: T6, ADAM10 (Homo sapiens, UniProt O14672); test: Protease panel: ADAM10; assay type: biochemical; settings: supplement panel table, test and control compound
T6 construct: Reaction Biology Corporation (contract testing)

MMP 3 = MMP 3 (Homo sapiens, UniProt P08254); test: Protease panel: MMP 3; assay type: biochemical; settings: supplement panel table, test and control compound
Procedure: (§1) Protease panel testing was carried out by Reaction Biology Corporation.

MMP 7 = MMP 7 (Homo sapiens, UniProt P09237); test: Protease panel: MMP 7; assay type: biochemical; settings: supplement panel table, test and control compound
Procedure: as §1

MMP 12 = target: T7, MMP 12 (Homo sapiens, UniProt P39900); test: Protease panel: MMP 12; assay type: biochemical; settings: supplement panel table, test and control compound
T7 construct: Reaction Biology Corporation (contract testing)
Procedure: as §1

MMP 14 = MMP 14 (Homo sapiens, UniProt P50281); test: Protease panel: MMP 14; assay type: biochemical; settings: supplement panel table, test and control compound
Procedure: as §1

MMP 13 = MMP 13 (Homo sapiens, UniProt P45452); test: biochemical
TACE = TACE (Homo sapiens, UniProt P78536); test: biochemical
Elastase = test: Protease panel: Elastase; assay type: biochemical; settings: supplement panel table, test and control compound
FXa = target: T8, FXa (Homo sapiens, UniProt P00742); test: Protease panel: FXa; assay type: biochemical; settings: supplement panel table, test and control compound
T8 construct: FXa serine peptidase

Kallikrein 5 = Kallikrein 5 (Homo sapiens, UniProt Q9Y337); test: Protease panel: Kallikrein 5; assay type: biochemical; settings: supplement panel table, test and control compound
Kallikrein 7 = Kallikrein 7 (Homo sapiens, UniProt P49862); test: Protease panel: Kallikrein 7; assay type: biochemical; settings: supplement panel table, test and control compound
Kallikrein 12 = Kallikrein 12 (Homo sapiens, UniProt Q9UKR0); test: Protease panel: Kallikrein 12; assay type: biochemical; settings: supplement panel table, test and control compound
Kallikrein 13 = Kallikrein 13 (Homo sapiens, UniProt Q9UKR3); test: Protease panel: Kallikrein 13; assay type: biochemical; settings: supplement panel table, test and control compound
Kallikrein 14 = Kallikrein 14 (Homo sapiens, UniProt Q9P0G3); test: Protease panel: Kallikrein 14; assay type: biochemical; settings: supplement panel table, test and control compound
Matriptase 2 = Matriptase 2 (Homo sapiens, UniProt Q8IU80); test: Protease panel: Matriptase 2; assay type: biochemical; settings: supplement panel table, test and control compound
Plasma kallikrein = target: T9, Plasma kallikrein (Homo sapiens, UniProt P03952); test: Protease panel: Plasma kallikrein; assay type: biochemical; settings: supplement panel table, test and control compound
T9 construct: Reaction Biology Corporation (contract testing)

Plasmin = target: T10, Plasmin (Homo sapiens, UniProt P00747); test: Protease panel: Plasmin; assay type: biochemical; settings: supplement panel table, test and control compound
T10 construct: Reaction Biology Corporation (contract testing)

Thrombin a = target: T11, Thrombin a (Homo sapiens, UniProt P00734); test: Protease panel: Thrombin a; assay type: biochemical; settings: supplement panel table, test and control compound
T11 construct: Reaction Biology Corporation (contract testing)

Trypsin = test: Protease panel: Trypsin; assay type: biochemical; settings: supplement panel table, test and control compound
Tryptase b2 = target: T12, Tryptase b2 (Homo sapiens, UniProt P20231); test: Protease panel: Tryptase b2; assay type: biochemical; settings: supplement panel table, test and control compound
T12 construct: Reaction Biology Corporation (contract testing)

Tryptase g1 = target: T13, Tryptase g1 (Homo sapiens, UniProt Q9NRR2); test: Protease panel: Tryptase g1; assay type: biochemical; settings: supplement panel table, test and control compound
T13 construct: Reaction Biology Corporation (contract testing)

Urokinase = target: T14, Urokinase (Homo sapiens, UniProt P00749); test: Protease panel: Urokinase; assay type: biochemical; settings: supplement panel table, test and control compound
T14 construct: Reaction Biology Corporation (contract testing)

Caspase 1 = target: T15, Caspase 1 (Homo sapiens, UniProt P29466); test: Protease panel: Caspase 1; assay type: biochemical; settings: supplement panel table, test and control compound
T15 construct: Reaction Biology Corporation (contract testing)

Caspase 2 = target: T16, Caspase 2 (Homo sapiens, UniProt P42575); test: Protease panel: Caspase 2; assay type: biochemical; settings: supplement panel table, test and control compound
T16 construct: Reaction Biology Corporation (contract testing)

Caspase 4 = target: T17, Caspase 4 (Homo sapiens, UniProt P49662); test: Protease panel: Caspase 4; assay type: biochemical; settings: supplement panel table, test and control compound
T17 construct: Reaction Biology Corporation (contract testing)

Caspase 5 = target: T18, Caspase 5 (Homo sapiens, UniProt P51878); test: Protease panel: Caspase 5; assay type: biochemical; settings: supplement panel table, test and control compound
T18 construct: Reaction Biology Corporation (contract testing)

Caspase 8 = target: T19, Caspase 8 (Homo sapiens, UniProt Q14790); test: Protease panel: Caspase 8; assay type: biochemical; settings: supplement panel table, test and control compound
T19 construct: Reaction Biology Corporation (contract testing)

Caspase 9 = target: T20, Caspase 9 (Homo sapiens, UniProt P55211); test: Protease panel: Caspase 9; assay type: biochemical; settings: supplement panel table, test and control compound
T20 construct: Reaction Biology Corporation (contract testing)

Caspase 10 = target: T21, Caspase 10 (Homo sapiens, UniProt Q92851); test: Protease panel: Caspase 10; assay type: biochemical; settings: supplement panel table, test and control compound
T21 construct: Reaction Biology Corporation (contract testing)

Caspase 11 = target: T22, Caspase 11 (Mus musculus, UniProt P70343); test: Protease panel: Caspase 11; assay type: biochemical; settings: supplement panel table, test and control compound
T22 construct: Reaction Biology Corporation (contract testing)

Kallikrein 1 = Kallikrein 1 (Homo sapiens, UniProt P06870); test: Protease panel: Kallikrein 1; assay type: biochemical; settings: supplement panel table, test and control compound
Neprilysin = target: T23, Neprilysin (Homo sapiens, UniProt P08473); test: Protease panel: Neprilysin; assay type: biochemical; settings: supplement panel table, test and control compound
T23 construct: Reaction Biology Corporation (contract testing)
Procedure: as §1

T20 sequence (P55211 whole entry, species assumed): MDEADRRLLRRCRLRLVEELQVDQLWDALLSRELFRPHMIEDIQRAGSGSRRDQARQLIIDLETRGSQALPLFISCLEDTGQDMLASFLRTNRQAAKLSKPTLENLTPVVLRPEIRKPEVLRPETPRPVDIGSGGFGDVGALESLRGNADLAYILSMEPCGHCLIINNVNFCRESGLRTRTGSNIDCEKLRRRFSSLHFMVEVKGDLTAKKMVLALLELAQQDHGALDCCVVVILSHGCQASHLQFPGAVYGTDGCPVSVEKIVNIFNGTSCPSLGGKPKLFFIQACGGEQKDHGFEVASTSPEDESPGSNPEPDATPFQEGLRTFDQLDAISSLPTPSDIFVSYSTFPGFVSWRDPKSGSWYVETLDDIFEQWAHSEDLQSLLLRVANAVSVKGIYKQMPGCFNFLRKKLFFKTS
Sequence of Kallikrein 7 (P49862 30-253, species assumed): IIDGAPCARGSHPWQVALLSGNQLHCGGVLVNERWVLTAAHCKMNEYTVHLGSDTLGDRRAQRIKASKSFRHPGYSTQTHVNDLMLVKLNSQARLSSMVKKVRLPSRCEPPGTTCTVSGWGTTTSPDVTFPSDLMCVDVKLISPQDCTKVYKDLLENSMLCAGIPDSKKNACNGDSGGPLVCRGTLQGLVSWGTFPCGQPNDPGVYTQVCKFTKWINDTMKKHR
Sequence of TACE (P78536 215-824): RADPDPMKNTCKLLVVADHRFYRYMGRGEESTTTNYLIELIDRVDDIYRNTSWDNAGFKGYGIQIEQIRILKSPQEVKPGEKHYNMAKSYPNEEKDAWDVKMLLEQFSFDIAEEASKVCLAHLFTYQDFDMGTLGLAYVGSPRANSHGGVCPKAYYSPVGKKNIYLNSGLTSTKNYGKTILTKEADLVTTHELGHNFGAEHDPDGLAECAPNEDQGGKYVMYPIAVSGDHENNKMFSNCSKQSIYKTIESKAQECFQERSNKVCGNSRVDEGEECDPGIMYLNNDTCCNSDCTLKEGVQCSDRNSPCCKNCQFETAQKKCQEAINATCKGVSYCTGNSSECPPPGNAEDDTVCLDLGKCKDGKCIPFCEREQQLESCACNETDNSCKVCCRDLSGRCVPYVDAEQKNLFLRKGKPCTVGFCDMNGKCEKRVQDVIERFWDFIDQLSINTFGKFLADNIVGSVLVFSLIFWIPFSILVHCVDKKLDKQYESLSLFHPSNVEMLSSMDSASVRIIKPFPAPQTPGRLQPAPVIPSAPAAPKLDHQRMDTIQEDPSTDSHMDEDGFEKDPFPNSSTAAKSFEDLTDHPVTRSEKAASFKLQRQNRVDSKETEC
T16 sequence (P42575 whole entry, species assumed): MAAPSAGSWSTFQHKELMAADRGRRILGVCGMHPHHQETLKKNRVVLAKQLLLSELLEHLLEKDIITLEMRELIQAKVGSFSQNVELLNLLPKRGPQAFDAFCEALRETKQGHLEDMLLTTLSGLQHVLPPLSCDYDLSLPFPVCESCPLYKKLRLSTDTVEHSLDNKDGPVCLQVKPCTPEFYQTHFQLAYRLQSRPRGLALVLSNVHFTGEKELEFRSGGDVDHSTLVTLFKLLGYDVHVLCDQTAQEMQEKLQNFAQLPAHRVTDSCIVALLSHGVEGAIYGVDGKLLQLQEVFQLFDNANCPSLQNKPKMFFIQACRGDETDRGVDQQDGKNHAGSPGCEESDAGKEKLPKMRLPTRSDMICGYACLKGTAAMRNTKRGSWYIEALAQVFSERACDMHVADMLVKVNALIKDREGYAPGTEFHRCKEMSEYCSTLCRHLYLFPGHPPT
T3 sequence (P53634 25-463, species assumed): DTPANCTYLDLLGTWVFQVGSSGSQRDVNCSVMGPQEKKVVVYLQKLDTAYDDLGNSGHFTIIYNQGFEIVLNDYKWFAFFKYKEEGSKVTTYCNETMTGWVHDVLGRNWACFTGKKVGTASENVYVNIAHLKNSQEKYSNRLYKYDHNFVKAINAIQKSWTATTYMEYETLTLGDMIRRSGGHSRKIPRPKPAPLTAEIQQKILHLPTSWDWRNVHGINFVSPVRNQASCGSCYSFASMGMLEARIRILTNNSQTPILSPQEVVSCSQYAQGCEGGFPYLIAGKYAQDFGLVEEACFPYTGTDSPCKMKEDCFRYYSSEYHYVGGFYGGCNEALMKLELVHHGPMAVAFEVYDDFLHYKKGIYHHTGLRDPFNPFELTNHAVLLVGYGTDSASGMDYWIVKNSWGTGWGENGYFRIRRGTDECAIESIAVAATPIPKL
T5 sequence (P55210 whole entry, species assumed): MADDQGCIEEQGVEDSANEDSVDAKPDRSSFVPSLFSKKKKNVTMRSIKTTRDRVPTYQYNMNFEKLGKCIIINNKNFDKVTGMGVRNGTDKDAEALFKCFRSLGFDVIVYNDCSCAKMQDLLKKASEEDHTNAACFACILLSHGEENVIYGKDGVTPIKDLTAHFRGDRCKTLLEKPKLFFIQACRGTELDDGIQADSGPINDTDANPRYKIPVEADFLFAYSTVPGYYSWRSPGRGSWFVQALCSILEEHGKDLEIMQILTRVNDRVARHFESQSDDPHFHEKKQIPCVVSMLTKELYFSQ
T10 sequence (P00747 581-810 limits assumed, species assumed): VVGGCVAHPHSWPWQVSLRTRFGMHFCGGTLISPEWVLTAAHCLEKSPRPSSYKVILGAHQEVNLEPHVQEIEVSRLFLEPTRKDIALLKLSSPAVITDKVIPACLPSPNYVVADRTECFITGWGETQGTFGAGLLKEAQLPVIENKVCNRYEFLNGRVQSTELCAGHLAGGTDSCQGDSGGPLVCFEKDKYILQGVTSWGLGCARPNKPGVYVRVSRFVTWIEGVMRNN
T10 sequence (P00747 97-580 partner limits assumed, species assumed): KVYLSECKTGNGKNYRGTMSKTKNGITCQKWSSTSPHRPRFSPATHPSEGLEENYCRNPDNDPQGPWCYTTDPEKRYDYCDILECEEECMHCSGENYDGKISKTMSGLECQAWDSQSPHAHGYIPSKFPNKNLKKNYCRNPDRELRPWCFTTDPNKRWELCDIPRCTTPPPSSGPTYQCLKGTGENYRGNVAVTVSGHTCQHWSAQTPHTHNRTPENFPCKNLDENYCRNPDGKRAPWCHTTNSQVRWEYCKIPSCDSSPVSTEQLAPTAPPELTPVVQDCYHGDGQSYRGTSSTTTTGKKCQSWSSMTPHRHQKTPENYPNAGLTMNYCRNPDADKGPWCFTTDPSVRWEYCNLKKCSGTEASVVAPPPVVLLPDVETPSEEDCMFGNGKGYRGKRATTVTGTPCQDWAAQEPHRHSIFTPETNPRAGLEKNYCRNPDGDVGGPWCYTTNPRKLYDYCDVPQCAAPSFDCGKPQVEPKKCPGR
T15 sequence (P29466 120-404, species assumed): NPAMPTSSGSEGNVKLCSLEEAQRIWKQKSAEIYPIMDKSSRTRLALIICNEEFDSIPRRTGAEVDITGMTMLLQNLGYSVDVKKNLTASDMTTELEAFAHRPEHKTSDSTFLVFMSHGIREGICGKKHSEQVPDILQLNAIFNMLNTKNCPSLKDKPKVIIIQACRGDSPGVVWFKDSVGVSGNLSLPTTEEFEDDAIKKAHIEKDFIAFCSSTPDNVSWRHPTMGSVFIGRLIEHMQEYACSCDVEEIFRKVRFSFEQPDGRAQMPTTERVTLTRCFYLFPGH
Sequence of Cathepsin V (O60911 114-334, species assumed): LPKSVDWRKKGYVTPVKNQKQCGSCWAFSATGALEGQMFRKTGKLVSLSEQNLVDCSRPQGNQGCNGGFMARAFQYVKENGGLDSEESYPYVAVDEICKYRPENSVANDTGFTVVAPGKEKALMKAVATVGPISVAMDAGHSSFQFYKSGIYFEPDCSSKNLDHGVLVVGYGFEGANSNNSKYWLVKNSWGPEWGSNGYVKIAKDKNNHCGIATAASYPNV
T19 sequence (Q14790 217-479, species assumed): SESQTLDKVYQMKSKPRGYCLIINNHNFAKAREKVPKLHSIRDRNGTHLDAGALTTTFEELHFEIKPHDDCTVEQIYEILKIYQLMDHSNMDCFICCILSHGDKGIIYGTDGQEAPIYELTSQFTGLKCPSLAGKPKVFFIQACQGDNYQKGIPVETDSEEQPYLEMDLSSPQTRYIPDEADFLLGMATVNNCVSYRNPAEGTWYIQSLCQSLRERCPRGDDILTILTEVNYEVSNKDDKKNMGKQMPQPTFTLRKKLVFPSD
Sequence of Kallikrein 1 (P06870 25-262, species assumed): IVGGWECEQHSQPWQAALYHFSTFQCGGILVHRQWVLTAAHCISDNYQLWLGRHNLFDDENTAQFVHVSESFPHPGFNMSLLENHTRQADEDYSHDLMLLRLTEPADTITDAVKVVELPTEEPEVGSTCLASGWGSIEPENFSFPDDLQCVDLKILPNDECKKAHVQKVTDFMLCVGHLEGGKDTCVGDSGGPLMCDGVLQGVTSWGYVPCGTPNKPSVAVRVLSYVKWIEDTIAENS
Sequence of Cathepsin L (P07711 114-333, species assumed): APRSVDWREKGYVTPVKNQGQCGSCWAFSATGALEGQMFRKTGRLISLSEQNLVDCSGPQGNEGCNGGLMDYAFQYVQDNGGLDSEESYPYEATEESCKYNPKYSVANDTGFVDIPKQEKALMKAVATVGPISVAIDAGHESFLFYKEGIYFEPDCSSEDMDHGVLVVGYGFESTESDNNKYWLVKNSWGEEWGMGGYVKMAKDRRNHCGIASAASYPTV
Sequence of Kallikrein 12 (Q9UKR0 18-248, species assumed): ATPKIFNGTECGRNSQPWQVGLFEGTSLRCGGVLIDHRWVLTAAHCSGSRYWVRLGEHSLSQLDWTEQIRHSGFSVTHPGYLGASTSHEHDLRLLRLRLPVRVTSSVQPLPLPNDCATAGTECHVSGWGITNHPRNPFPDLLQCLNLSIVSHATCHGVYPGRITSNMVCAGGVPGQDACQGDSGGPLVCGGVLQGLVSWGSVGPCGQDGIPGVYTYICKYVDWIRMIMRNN
T4 sequence (P00784 134-345): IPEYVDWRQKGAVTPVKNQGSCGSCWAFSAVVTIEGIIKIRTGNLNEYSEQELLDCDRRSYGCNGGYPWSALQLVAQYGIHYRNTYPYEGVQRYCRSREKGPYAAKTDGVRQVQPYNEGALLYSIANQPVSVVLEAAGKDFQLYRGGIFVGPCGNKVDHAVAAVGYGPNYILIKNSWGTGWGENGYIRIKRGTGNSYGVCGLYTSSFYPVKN

CC(C)C[C@H](NC(=O)[C@H]1O[C@@H]1C(=O)O)C(=O)NCCCCN=C(N)N [Compound E64]
IC50 (Calpain 1): 0.098 µM
IC50 (Cathepsin B): 0.00987 µM
IC50 (Cathepsin C): 0.607 µM
IC50 (Cathepsin H): 0.198 µM
IC50 (Cathepsin L): 0.00999 µM
IC50 (Cathepsin S): 0.00939 µM
IC50 (Cathepsin V): 0.0118 µM
IC50 (Papain): 0.000936 µM

CC(=O)N[C@@H](CC(=O)O)C(=O)N[C@@H](CCC(=O)O)C(=O)N[C@H](C(=O)N[C@H](C=O)CC(=O)O)C(C)C [DEVD-CHO]
IC50 (Caspase 7): 0.0011 µM

CNC(=O)[C@H](Cc1c[nH]c2ccccc12)NC(=O)[C@@H](CC(=O)NO)CC(C)C [GM6001]
IC50 (ADAM10): 0.0811 µM
IC50 (MMP 3): 0.0163 µM
IC50 (MMP 7): 0.00438 µM
IC50 (MMP 12): 0.00117 µM
IC50 (MMP 14): 0.00124 µM
IC50 (MMP 13): 0.535 nM
IC50 (TACE): 9.1 nM

CCOC(=O)c1ccc(OC(=O)CCCCCN=C(N)N)cc1 [Gabexate mesylate (GM), Gabexate mesylate]
IC50 (Elastase): 1.81 µM
IC50 (FXa): 5.3 µM
IC50 (Kallikrein 5): 8.06 µM
IC50 (Kallikrein 7): 29.3 µM
IC50 (Kallikrein 12): 0.351 µM
IC50 (Kallikrein 13): 17.6 µM
IC50 (Kallikrein 14): 0.969 µM
IC50 (Matriptase 2): 7.56 µM
IC50 (Plasma kallikrein): 0.475 µM
IC50 (Plasmin): 0.936 µM
IC50 (Thrombin a): 3.73 µM
IC50 (Trypsin): 0.0669 µM
IC50 (Tryptase b2): 0.0873 µM
IC50 (Tryptase g1): 0.0506 µM
IC50 (Urokinase): 0.1 µM

CC[C@H](C)[C@H](NC(C)=O)C(=O)N[C@@H](CCC(=O)O)C(=O)N[C@H](C(=O)N[C@H](C=O)CC(=O)O)[C@@H](C)O [IETD-CHO] (Ac-IETD-aldehyde)
IC50 (Caspase 1): 0.0545 µM
IC50 (Caspase 2): 0.626 µM
IC50 (Caspase 4): 2.73 µM
IC50 (Caspase 5): 0.0213 µM
IC50 (Caspase 8): 0.00166 µM
IC50 (Caspase 9): 0.0553 µM
IC50 (Caspase 10): 0.0177 µM
IC50 (Caspase 11): 0.68 µM

CC(=O)N[C@@H](CC(C)C)C(=O)N[C@@H](CC(C)C)C(=O)N[C@H](C=O)CCCNC(=N)N [Leupeptin, reference compound]
IC50 (Kallikrein 1): 26.7 µM

CC(C)C[C@H](NP(=O)(O)O[C@@H]1O[C@@H](C)[C@H](O)[C@@H](O)[C@H]1O)C(=O)N[C@@H](Cc1c[nH]c2ccccc12)C(=O)O [Phosphoramidon]
IC50 (Neprilysin): 0.0422 µM
